This passage reports melting point results from a melting point compilation (Tetko et al.; mined from patent text by program, amines drawn as free bases though some values may be those of a salt).

In general, melting point refers to the temperature of the solid-liquid transition. `O=C(CCCCCCCCC(=O)OCCO)OCCO` had a melting point of 47 °C.
`CCCCc1nc2cc[nH]c(=O)c2n1Cc1ccc(-c2ccccc2C#N)cc1`: the melting point stood at 165 °C.
As for `CCCCOc1ccc(C=CCCCC(=O)O)cc1`, the melting point fell in the range of 56 to 57 °C.
`COC(=O)c1ccc(S(=O)(=O)Cc2c(O)ccc3c2CCCC3=O)cc1` came in with a melting point of 132 to 134 °C.
`COc1cn(Cc2cccc3ccccc23)c(=O)o1` had a melting point of 80 to 82 °C.
Regarding `CC(=O)Nc1cc(C(C)(C)C)[nH]n1`, the melting point lay in the range of 194 to 195 °C.
`CC(C)(C)OC(=O)N[C@@H](COc1ccccc1N)C(=O)O` came in with a melting point of 90 to 91 °C.
As for `CN(C)S(=O)(=O)Oc1cc(-n2c(=O)cc(C(F)(F)F)n(C)c2=O)c(F)cc1Cl`, the melting point fell in the range of 118 to 120 °C.
In the case of `CC(=O)OC1CSC(Oc2ccc(-c3ccc(C(F)(F)F)cc3)nc2)C(OC(C)=O)C1OC(C)=O` (centres undefined), the melting point is 178 to 180 °C.
`O=S(=O)(Nc1ccc(I)cc1)c1ccccc1` came in with a melting point of 141 to 143 °C.
The compound `O=C(O)CCCCCCCCCCCCCCC(=O)ON1C(=O)c2ccccc2C1=O` displayed a melting point of 109 to 110 °C.
`Clc1ccc(N2CCN(c3ccccn3)CC2)nn1` displayed a melting point of 195 °C.
In the case of `CN(CCNC(N)=N[N+](=O)[O-])c1ccc(Cl)nc1`, the melting point was in the range of 119 to 122 °C.
Then `NC(=O)c1c(C(=O)O)cnn1-c1ccc(Cl)c(Cl)c1`, with 249 to 250 °C; and `CCCCCCCCCCCc1nc2c(O)c(Cl)c(C)c(Cl)c2cc1CCCCCCCCCC`, with 54.5 to 56 °C.
For `O=c1cc2c(nn1-c1ccc(Cl)cc1)-c1cc(Br)sc1SCC2`, the melting point was 148 to 151 °C.
Consider `CN(C)CCCn1c(-c2ccc(C#N)cc2)cc2c1CCCCC2`, for which the melting point is 96 to 97 °C.
Regarding `O=C(O)c1cn(-c2nncs2)c2cc(F)c(F)cc2c1=O`, the melting point fell in the range of 233 to 236 °C.
Then `COC1=C(Cc2ccc3ccccc3c2)C(=O)CC1`, with 70 to 71 °C; and `NC1=CC2=C(CC1)CCc1c2[nH]c(=O)c(=O)n1Cc1ccccc1`, with 290 °C; and `Cc1nn2c(-c3cccc(NC(=O)OC(C)C)c3)ccnc2c1C(=O)c1cccs1`, with 186 to 188 °C.
As for `COC(=O)NCCCn1c(-c2ccc(OC)cc2)csc1=Nc1ccccc1`, the figure is 106 to 108 °C; as for `Cc1oc(-c2ccccc2)nc1COc1ccc(COc2ncccc2CC#N)cn1`, 110 to 111 °C; as for `Cc1ccc(C(=O)C2=C(O)C(=O)N(c3ccc(C(C)C)nn3)C2c2ccc(C(C)C)cc2)cc1` (centres undefined), 269 to 270 °C.
`O=c1[nH]c(=S)[nH]c2ccnn12` gave a melting point of 295 °C.
In turn, `CN1CCN(C(=O)COc2cc(-c3ccccc3)nc3ccccc23)CC1=O` had a melting point of 140 °C.
`CC(=O)N(C)c1cccc(-c2ccc3nnc(N)n3n2)c1` yielded a melting point of 196 to 197 °C.
As for `O=C1c2cc(Cl)c(Cl)cc2CN2C(=NO)CCC12` (centres undefined), the figure is 245 to 246 °C.
`CCOc1ccc(-c2nc(-c3cccc(C(O)CO)n3)cs2)cc1OCC` (centres undefined) registered a melting point of 112 °C.
`CCCOCCOc1ccc(-c2ccc3c(c2)C=C(C(=O)O)CCCN3CC(C)C)cc1` gave a melting point of 142 to 144 °C.
As for `CCCCCCCCCNC(=O)Nc1ccccc1C(=O)NC1CCN(C(c2ccccc2)c2ccccc2)CC1`, the figure is 149 to 150 °C; as for `CCCc1cc(=O)oc2c(C=O)c(O)c3c(c12)OC(C)(C)C=C3`, 116 to 117 °C.
As for `Cc1c(C)c2cc(CCN3CCN(c4n[nH]c5ccccc45)CC3)ccc2[nH]c1=O`, the melting point fell in the range of 266 to 268 °C.
As to `COc1nsc2nc3ccccc3n12`, the melting point lay within 172 to 175 °C.
As to `CN(CCCN=C(NC#N)NCCSCc1csc(NC(=N)N)n1)CCC(c1ccccc1)c1ccccn1` (centres undefined), the melting point lay in the range of 110 to 112 °C.
Turning to `CC(C)(Cc1cc2ccccc2[nH]1)[N+](=O)[O-]`, the melting point lay in the range of 102 to 103 °C.
Take `O=C(CC(=O)c1cccc(C(F)(F)F)c1NC(=O)CCl)Nc1nccs1`: the melting point is 192 °C.
`Cc1nc2c3c(c(C(=O)NCCO)cc2n1C)CCC(c1ccccc1)O3` (centres undefined) yielded a melting point of 228 to 229 °C.
With `CCOC(=O)NC(C(=O)NN(Cc1ccc(-c2nccs2)cc1)CC(O)C(Cc1ccccc1)NC(=O)C(NC(=O)OC)C(C)CC)C(C)C` (centres undefined), the melting point fell in the range of 209 to 211 °C.
As for `CCS(=O)(=O)NC1CCCOc2ccccc21` (centres undefined), the figure is 109 to 111 °C; as for `CC(=O)Nc1nc(C)c(CCN2CCN(C(c3ccccc3)c3ccccc3)CC2)s1`, 166 to 168 °C.
Take `Cc1nc(C(O)(Cn2cncn2)c2ccc(Cl)cc2)sc1C` (centres undefined): the melting point is 174 °C.
As for `CC(C)/C=C(/C(=O)O)c1ccc(S(C)(=O)=O)cc1`, the figure is 179 to 182 °C.
Compound `C=CC(=O)Oc1ccc(N2C(=O)C(=C(C)C)/C(=C(/C)c3c(C)n(C)c4ccccc34)C2=O)cc1` displayed a melting point of 172 to 174 °C.
For the compound `CC(C)(C)Nc1ccncc1NC(=S)NC1CCCCC1`, the melting point fell in the range of 216 to 218 °C.
Then `Cc1cccc2c(C=O)cc(C(C)C)c(O)c12`, with 125 to 128 °C.
For `CC(C)Cc1cc(C(=O)N2CCN(CC(C)C)CC2)ccc1OCc1ccc(F)cc1`, the melting point lay in the range of 77 to 78 °C.
The compound `O=C(O)c1cc2cc(-c3ccsc3)ccc2o1` gave a melting point of 215 to 220 °C.
`COc1cccc(C(=O)N2CCN(CC3(C)Cc4c(C)c(N)c(C)c(C)c4O3)CC2)c1` (centres undefined) yielded a melting point of 95 to 98 °C.
The compound `COc1ccc(N2CCN(CCn3c(=O)[nH]c4ccsc4c3=O)CC2)cc1` registered a melting point of 130 to 131 °C.
`N#CCCCOc1ccc(CNc2ccc(-n3nc(-c4cccnc4)cc3C#N)cc2)cc1` registered a melting point of 128 to 129 °C.
The compound `CCNC(=O)N(C)Cc1cccc2c1C(=O)N(C1CCC(=O)NC1=O)C2=O` (centres undefined) showed a melting point of 219 to 221 °C.
As for `CC(NC(=O)OC(C)(C)C)C1CCN(c2c(F)cc3c(=O)[nH]c(=O)n4c3c2CCC4C)C1` (centres undefined), the figure is 123 to 125 °C.
Take `CCn1c(=O)c2[nH]c(/C=C/c3ccc(N(C)C)cc3)nc2n(CC)c1=O`: the melting point is > 300 °C.
Consider `CCC(S)=C1SC(=S)N(c2ccc(Cl)cc2)C1=O`, for which the melting point was 163 to 165 °C.
With `Oc1ccc2c(-c3ccc(F)cc3F)noc2c1Cl`, the melting point was 186 to 190 °C.
Compound `CCCS(=O)(=O)Oc1c(C(=O)c2nn(C)c(=O)n(-c3ccccc3)c2=O)cnn1C(C)C` had a melting point of 51 to 53 °C.
Consider `Fc1ccc(-c2cn(CCC#Cc3ccccn3)nn2)cc1`, for which the melting point lay within 120 to 122 °C.
The compound `O=c1[nH]c2ccccc2c(=O)n1CCOCCO` showed a melting point of 149 to 151 °C.
Regarding `C[C@H](Nc1nc(Nc2cccc(NS(C)(=O)=O)c2)nc2[nH]cnc12)c1ccccc1`, the melting point was in the range of 136 to 139 °C.
Then `OC1CCCc2nc3cc(Cl)ccc3c(NCc3ccc(F)cc3)c21` (centres undefined), with 187 to 188 °C; and `CC(C)CNCc1cccc(OCCCNc2nc(N)nn2C)c1`, with 89 to 90 °C.
As for `Cc1c(O)c(C(C)(C)C)cc2c1CCC1C2CCC2(C)C(=O)CCC12` (centres undefined), the melting point was 190 to 192 °C.
The compound `CC(C)c1nc(C2CCCCC2)cc(-c2ccc(F)cc2)c1C=O` showed a melting point of 59 to 61 °C.
Turning to `CN1CC(CCN2CCN(c3ccccn3)CC2)OC1=O` (centres undefined), the melting point is 108 to 109 °C.
Then `COc1cc2c3ccc(OC)c(OC)c3n(C(=O)c3ccc4ccccc4c3)c2cc1OC`, with 137 to 141 °C.
As for `CC(=CC(=O)c1ccncc1)N(C)C`, the figure is 88 to 89 °C; as for `Cc1ccc(-c2nc(SCc3ccccn3)n[nH]2)c(C)c1`, 112 to 114 °C; as for `CC(C)(C)OC(=O)C=Cc1cnc2ccccc2c1`, 128 to 129 °C.
Then `O=C1c2ccccc2C(=O)N1Cc1nnc2n1-c1ccc(Cl)cc1C(c1ccccc1F)=CC2`, with 235 to 237 °C.
Compound `Clc1cc2nc(-c3ccncc3)[nH]c2cc1Cl` showed a melting point of 297 °C.
`S=C1NCC2c3ccccc3Cc3ccccc3N12` (centres undefined) gave a melting point of 222 to 224 °C.
`CCCCCCCCC(=O)Nc1ccc([N+](=O)[O-])cc1` showed a melting point of 76 to 76.5 °C.
In the case of `NC(=O)N(CC(=O)OCCCCCCOC(=O)CN(C(N)=O)c1ccccc1)c1ccccc1`, the melting point fell in the range of 131 to 140 °C.
With `COC(=O)c1cccnc1NC(=O)C(C)CS` (centres undefined), the melting point lay in the range of 50 to 52 °C.
`O=C(Cc1cccs1)NCc1cccc2c1C(=O)N(C1CCC(=O)NC1=O)C2=O` (centres undefined) gave a melting point of 171 to 173 °C.
Take `CC1CC(n2cncc2C(=O)O)c2ccccc21` (centres undefined): the melting point was determined as 209 °C.
As for `Cc1ccc(S(=O)(=O)Nc2nc(-c3ccc(OCc4ccccc4)c(OCc4ccccc4)c3)cs2)cc1`, the melting point was 158 to 161 °C.
Compound `N=C(Nc1ccc(Cl)cc1)Nc1ncccc1OCc1ccc(F)cc1F` showed a melting point of 182 to 184 °C.
With `CN(C)c1c(CS(=O)(=O)C2=NOC(C)(C)C2)c(C(F)(F)F)nn1-c1ccccc1`, the melting point lay within 150 to 151 °C.
With `CC(C)C[C@H](NC(=O)OCCC1c2ccccc2-c2ccccc21)C(=O)O`, the melting point is 42 to 43 °C.
For `CC(=O)N1CCCC2=C1CC(c1ccccc1)c1cc(Cl)ccc12` (centres undefined), the melting point lay within 167 to 168 °C.
Compound `CC(c1cc(Br)c(O)c(Br)c1)(c1cc(Br)c(O)c(Br)c1)c1cc(Br)c(O)c(Br)c1` came in with a melting point of 160 °C.
For `CCOC(=O)CCc1cn(Cc2ccc(OCc3cn4c(-c5ccccc5)cccc4n3)cc2)nc1OCC`, the melting point fell in the range of 104 to 105 °C.
Regarding `O=C(Nc1ccc(C(=O)N2Cc3ccccc3Cc3ccccc32)cc1)c1ccccc1OC(F)(F)F`, the melting point was 232 to 235 °C.
Turning to `O=C1C=CC(c2ccccc2)C2(c3ccccc3)CN(C(=O)Cc3ccccc3)CC12` (racemic), the melting point was found to be 188 °C.
As for `COc1cccc2c(=O)c(C#N)c(N)oc12`, the figure is 300 °C; as for `OCCn1ccc(NC(=S)NCC(F)(F)F)n1`, 145 to 146 °C; as for `CC1(C)Oc2c(c(Cl)cc(Cl)c2-n2c(=O)cc(C(F)(F)F)[nH]c2=O)C1=O`, 308 to 320 °C.
